According to the NIST ThermoML archive (doi:10.1021/je060271a):

Conditions: 283.14 K, Liquid, Vibrating tube method

CCCCCCC(=O)OCC(COC(=O)CCCCCC)(COC(=O)CCCCCC)COC(=O)CCCCCC [pentaerythritol tetraheptanoate]
Conditions	mass density [kg/m3]
11221 kPa	992.2
11244 kPa	992.2
11266 kPa	992.3
11294 kPa	992.2
11318 kPa	992.3
11342 kPa	992.2
11370 kPa	992.4
11394 kPa	992.3
11422 kPa	992.3
11446 kPa	992.3
11470 kPa	992.3
11499 kPa	992.4
11524 kPa	992.4
11548 kPa	992.4
11573 kPa	992.4
11602 kPa	992.4
11627 kPa	992.5
11657 kPa	992.5
11682 kPa	992.4
11707 kPa	992.5
11732 kPa	992.5
11762 kPa	992.5
11788 kPa	992.6
11813 kPa	992.5
11844 kPa	992.7
11870 kPa	992.6
11901 kPa	992.5
11928 kPa	992.7
11954 kPa	992.7
11981 kPa	992.5
12013 kPa	992.6
12040 kPa	992.6
12067 kPa	992.6
12099 kPa	992.8
12127 kPa	992.7
12161 kPa	992.8
12190 kPa	992.6
12219 kPa	992.7
12243 kPa	992.7
12264 kPa	992.8
12288 kPa	992.8
12308 kPa	992.8
12333 kPa	992.8
12353 kPa	992.7
12373 kPa	992.9
12398 kPa	992.9
12418 kPa	992.9
12439 kPa	993
12464 kPa	992.9
12485 kPa	993
12506 kPa	992.8
12527 kPa	992.9
12553 kPa	992.9
12574 kPa	993
12596 kPa	993
12622 kPa	992.9
12643 kPa	993.1
12665 kPa	993
12687 kPa	993
12713 kPa	993
12734 kPa	993
12760 kPa	993.1
12782 kPa	993.1
12805 kPa	993.1
12827 kPa	993
12854 kPa	993.1
12876 kPa	993.3
12899 kPa	993.1
12926 kPa	993.1
12948 kPa	993.1
12971 kPa	993.2
12999 kPa	993.2
13021 kPa	993.2
13045 kPa	993.2
13072 kPa	993.3
13096 kPa	993.2
13123 kPa	993.2
13146 kPa	993.3
13176 kPa	993.3
13201 kPa	993.2
13225 kPa	993.3
13243 kPa	993.4
13262 kPa	993.3
13278 kPa	993.3
13294 kPa	993.4
13313 kPa	993.3
13329 kPa	993.4
13348 kPa	993.4
13365 kPa	993.4
13383 kPa	993.3
13399 kPa	993.4
13418 kPa	993.5
13435 kPa	993.4
13451 kPa	993.5
13471 kPa	993.6
13488 kPa	993.4
13504 kPa	993.6
13524 kPa	993.4
13541 kPa	993.5
13558 kPa	993.5
13578 kPa	993.5
13595 kPa	993.5
13612 kPa	993.5
13632 kPa	993.5
13648 kPa	993.5
13666 kPa	993.5
13687 kPa	993.7
13704 kPa	993.7
13721 kPa	993.6
13738 kPa	993.6
13759 kPa	993.6
13776 kPa	993.6
